Data reported in PMC10333884, “Large‐scale phosphomimetic screening identifies phospho‐modulated motif‐based protein interactions” (Molecular Systems Biology, 2023).
Non-standard residues stand in square brackets, D forms with d. Residues, ends and D or L forms follow the SMILES beside them. pT = C[C@@H](OP(=O)(O)O)[C@H](N)C(=O)O; pS = N[C@@H](COP(=O)(O)O)C(=O)O

Legend:
Type in all cases: binding
[1] = molecular target: T1, KPNA4 ARM Major (Homo sapiens, UniProt O00629); assay: FP displacement assay, KPNA4 ARM major pocket; settings: for Kd: major pocket probe FITC-MYC 5 nM, 50 mM sodium phosphate pH 7.4, room temperature, at least three technical replicates, read-out: KD values ± SEM; for IC50: Fig 3E, KPNA4 ARM major, technical triplicates, read-out: IC50 values of displacement curves, with SEM
T1 construct: 60-487; GST (cleaved yes); made in house; host or cells: Escherichia coli BL21-Gold(DE3)
T1 sequence (O00629 60-487): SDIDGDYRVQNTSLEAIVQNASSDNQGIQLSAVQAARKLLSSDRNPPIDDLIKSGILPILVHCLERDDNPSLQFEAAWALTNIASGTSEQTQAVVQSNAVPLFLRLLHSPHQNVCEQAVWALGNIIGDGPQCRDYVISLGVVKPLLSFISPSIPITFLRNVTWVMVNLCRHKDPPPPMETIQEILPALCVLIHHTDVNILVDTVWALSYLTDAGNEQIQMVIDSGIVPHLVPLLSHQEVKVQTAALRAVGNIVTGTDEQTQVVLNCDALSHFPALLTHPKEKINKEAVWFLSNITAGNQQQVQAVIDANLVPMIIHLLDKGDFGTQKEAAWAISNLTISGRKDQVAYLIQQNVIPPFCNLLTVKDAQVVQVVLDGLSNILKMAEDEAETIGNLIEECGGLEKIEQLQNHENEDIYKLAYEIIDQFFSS
Description: (§1) FP experiments were performed as described previously (Kliche et al, [2021]). Shortly, in order to monitor the binding event, FITC‐labelled peptides were used (excitation 495 nm, emission: 535 nm) and the FP signal was recorded in mP on a SpectraMax iD5 Multi‐Mode Microplate Reader (Molecular Devices) by measuring the emitted light in two angels. The measurements were performed at room temperature and prepared in nonbinding black half area 96‐well microplates (Corning®; 50 μl/well). For measuring direct binding, that is saturation curves, a 1:1 dilution series of protein domain (25 μl/well) was generated in 50 mM sodium phosphate buffer pH 7.4 and the measurement performed with 5 nM FITC‐labelled peptide (25 μl/well). The buffer‐corrected values were subsequently plotted with PRISM and fitted to the quadratic equation (Gianni et al, [2005]).
(§2) The 1:1 dilution series in this experiment was performed with the unlabelled peptide in 50 mM sodium phosphate buffer pH 7.4, so that each well‐contained unlabelled peptide (25 μl) at a certain concentration and pre‐formed complex (25 μl). The KD values of this indirectly monitored binding event were calculated as described previously (Nikolovska‐Coleska et al, [2004]). All measurements were at least in technical triplicates as well as biological duplicates when indicated. An amplitude shift between repeat measurements in the displacement experiments was occasionally observed due to variations in the protein preparations. If that was the case, the “active” protein concentration was back‐calculated according to the quadratic equation from the saturation curves performed in parallel. By comparing the active protein concentrations in the complex between different protein preparations, the amplitude was normalised.

[2] = molecular target: T2, KPNA4 ARM minor (Homo sapiens, UniProt O00629); assay: FP displacement assay, KPNA4 ARM minor pocket; settings: for Kd: minor pocket probe FITC-NCOR2 5 nM, 50 mM sodium phosphate pH 7.4, room temperature, at least three technical replicates, read-out: KD values ± SEM; for IC50: Fig 3E, KPNA4 ARM minor, technical triplicates, read-out: IC50 values of displacement curves, with SEM
T2 construct: 60-487; GST (cleaved yes); made in house; host or cells: Escherichia coli BL21-Gold(DE3)
T2 sequence (O00629 60-487): as above
Description: as §1, §2

[3] = molecular target: T3, MAP1LC3B (Homo sapiens, UniProt Q9GZQ8); assay: FP displacement assay, MAP1LC3B; settings: read-out: KD values ± SEM
T3 construct: GST (cleaved yes); made in house; host or cells: Escherichia coli BL21-Gold(DE3)
Description: as §1, §2

Row | SMILES | Kd [1] [µM] | Kd [2] [µM] | Kd [3] [µM] | IC50 [1] [µM] | IC50 [2] [µM]
1 | CC(=O)NCC(=O)N[C@@H](C)C(=O)N[C@@H](COP(=O)(O)O)C(=O)N1CCC[C@H]1C(=O)N[C@@H](C)C(=O)N[C@@H](CC(C)C)C(=O)N[C@@H](CCCCN)C(=O)N[C@@H](CCCNC(=N)N)C(=O)N[C@@H](CO)C(=O)N[C@@H](Cc1c[nH]cn1)C(=O)N[C@@H](CO)C(=O)N[C@@H](CC(=O)O)C(=O)N[C@@H](CO)C(=O)N[C@@H](Cc1ccc(O)cc1)C(N)=O [CDC25A114–125 pS] (Ac-GA[pS]PALKRSHSDSY-NH2) | 0.63 ± 0.04 | 2.8 ± 0.4 |  |  | 
2 | CC(=O)NCC(=O)N[C@@H](C)C(=O)N[C@@H](CO)C(=O)N1CCC[C@H]1C(=O)N[C@@H](C)C(=O)N[C@@H](CC(C)C)C(=O)N[C@@H](CCCCN)C(=O)N[C@@H](CCCNC(=N)N)C(=O)N[C@@H](CO)C(=O)N[C@@H](Cc1c[nH]cn1)C(=O)N[C@@H](CO)C(=O)N[C@@H](CC(=O)O)C(=O)N[C@@H](CO)C(=O)N[C@@H](Cc1ccc(O)cc1)C(N)=O [CDC25A114–125 wt] (Ac-GASPALKRSHSDSY-NH2) | 8.8 ± 0.2 | 0.2 ± 0.004 |  |  | 
3 | CC(=O)N[C@@H](CC(N)=O)C(=O)N[C@@H](Cc1ccc(O)cc1)C(=O)N[C@@H](C)C(=O)N1CCC[C@H]1C(=O)N1CCC[C@H]1C(=O)N[C@H](C(=O)N[C@@H](CCCCN)C(=O)N[C@@H](CCCNC(=N)N)C(=O)N[C@@H](CCC(=O)O)C(=O)N[C@@H](CCCNC(=N)N)C(=O)N[C@H](C(=O)N[C@@H](CO)C(=O)N[C@@H](CO)C(=O)N[C@@H](CC(C)C)C(=O)N[C@H](C(=O)N[C@@H](CCC(N)=O)C(N)=O)[C@@H](C)O)[C@@H](C)OP(=O)(O)O)C(C)C [RANBP3_114–129 pS (p + 5)] (Ac-NYAPPVKRER[pT]SSLTQ-NH2) | 1.13 ± 0.05 | 167 ± 9 |  | 10 ± 1 | 800 ± 75
4 | CC(=O)N[C@@H](CC(N)=O)C(=O)N[C@@H](Cc1ccc(O)cc1)C(=O)N[C@@H](C)C(=O)N1CCC[C@H]1C(=O)N1CCC[C@H]1C(=O)N[C@H](C(=O)N[C@@H](CCCCN)C(=O)N[C@@H](CCCNC(=N)N)C(=O)N[C@@H](CCC(=O)O)C(=O)N[C@@H](CCCNC(=N)N)C(=O)N[C@H](C(=O)N[C@@H](CO)C(=O)N[C@@H](CO)C(=O)N[C@@H](CC(C)C)C(=O)N[C@H](C(=O)N[C@@H](CCC(N)=O)C(N)=O)[C@@H](C)O)[C@@H](C)O)C(C)C [RANBP3_114–129 wt] (Ac-NYAPPVKRERTSSLTQ-NH2) | 0.15 ± 0.01 | 68 ± 4 |  | 1.3 ± 0.2 | 325 ± 34

Next, values leading:

Row | Kd [1] [µM] | Kd [2] [µM] | Kd [3] [µM] | IC50 [1] [µM] | IC50 [2] [µM] | SMILES
5 |  |  | 61 ± 2 |  |  | CC(=O)N[C@@H](CCC(N)=O)C(=O)N[C@@H](CC(N)=O)C(=O)N[C@@H](CC(C)C)C(=O)N[C@@H](CO)C(=O)N[C@@H](CCCNC(=N)N)C(=O)N[C@@H](COP(=O)(O)O)C(=O)N[C@@H](Cc1c[nH]c2ccccc12)C(=O)N[C@@H](Cc1c[nH]cn1)C(=O)N[C@@H](CC(=O)O)C(=O)N[C@H](C(=O)N[C@@H](CCC(N)=O)C(=O)N[C@H](C(=O)N[C@@H](CO)C(=O)N[C@@H](CO)C(=O)N[C@@H](C)C(=O)N[C@@H](Cc1ccc(O)cc1)C(N)=O)C(C)C)C(C)C [TPD52L2_91–106 pS]
6 |  |  | 760 ± 150 |  |  | CC(=O)N[C@@H](CCC(N)=O)C(=O)N[C@@H](CC(N)=O)C(=O)N[C@@H](CC(C)C)C(=O)N[C@@H](CO)C(=O)N[C@@H](CCCNC(=N)N)C(=O)N[C@@H](CO)C(=O)N[C@@H](Cc1c[nH]c2ccccc12)C(=O)N[C@@H](Cc1c[nH]cn1)C(=O)N[C@@H](CC(=O)O)C(=O)N[C@H](C(=O)N[C@@H](CCC(N)=O)C(=O)N[C@H](C(=O)N[C@@H](CO)C(=O)N[C@@H](CO)C(=O)N[C@@H](C)C(=O)N[C@@H](Cc1ccc(O)cc1)C(N)=O)C(C)C)C(C)C [TPD52L2_91–106 wt]
